15 compounds from ChEMBL document CHEMBL4334480, “Anti-inflammatory Ellagitannins from Cleidion brevipetiolatum for the Treatment of Rheumatoid Arthritis” (J Nat Prod, 2019) can be followed below.

A word on the IC50: it is the concentration that gives 50% inhibition. As usually defined, the inhibition in vivo is the relative decrease from the control value, in per cent.

For series [1], the system named is RAW264.7. The experiment in a line: Anti-inflammatory activity in mouse RAW264.7 cells assessed as inhibition of LPS-induced nitric oxide production preincubated for 2 hrs followed by LPS stimulation and measured after 24 hrs by Griess assay. It counts as functional, cell-based. On the technique in general: Griess reagent forms a coloured azo dye with nitrite.

In series [2] the test system is RAW264.7. The experiment in a line: Cytotoxicity against mouse RAW264.7 cells after 24 hrs by MTT assay. It counts as cell-based. The conditions noted are these: raw264.7, 24 h. (Tetrazolium assays rely on reduction of a dye to a coloured formazan, in cell work by metabolically active cells.)
The target of series [3] is MAP kinase p38 (Mus musculus) (UniProt P47811+O08911+Q9WUI1+Q9Z1B7). The series is described as follows: Inhibition of LPS-induced P38 phosphorylation in mouse RAW264.7 cells at 5 to 50 uM preincubated for 2 hrs followed by LPS-stimulation after 22 hrs by Western blot analysis. It counts as cell-based. A general note: In western blotting, separated proteins are transferred to a membrane and probed.

Series [4] deals with Transcription factor p65 (Mus musculus) (UniProt Q04207). The experiment in a line: Inhibition of LPS-induced NFkappaB p65 nuclear translocation in mouse RAW264.7 cells at 5 to 50 uM preincubated for 2 hrs followed by LPS-stimulation after 22 hrs by Western blot analysis. The format is cell-based.
Series [5] addresses T1, NF-kappa-B inhibitor alpha (Mus musculus) (UniProt Q9Z1E3).
T1 sequence (whole entry): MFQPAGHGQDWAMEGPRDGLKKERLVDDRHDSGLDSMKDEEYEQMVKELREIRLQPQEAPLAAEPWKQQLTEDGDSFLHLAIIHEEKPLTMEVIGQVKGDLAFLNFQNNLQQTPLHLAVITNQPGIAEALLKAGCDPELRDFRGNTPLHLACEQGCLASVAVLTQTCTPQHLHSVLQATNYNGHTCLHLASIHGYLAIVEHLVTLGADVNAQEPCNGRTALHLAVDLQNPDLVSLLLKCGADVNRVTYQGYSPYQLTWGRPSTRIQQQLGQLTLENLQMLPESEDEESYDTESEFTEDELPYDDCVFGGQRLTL
The series is described as follows: Inhibition of LPS-induced IKBalpha phosphorylation mouse RAW264.7 cells at 5 to 50 uM preincubated for 2 hrs followed by LPS-stimulation after 22 hrs by Western blot analysis. It counts as cell-based.

A short description of series [6]: Toxicity in DBA/1J mouse assessed as effect on behavioral changes at 50 mg/kg, po. It counts as organism-based. The conditions noted are these: in vivo.
Series [7] has as its system Mus musculus. The series is described as follows: Antiarthritic activity in collagen-induced rheumatoid arthritis DBA/1J mouse model assessed as reduction in hindlimb swelling at 50 mg/kg, po. The format is functional, organism-based.
Series [8] has as its system RAW264.7. The series is described as follows: Inhibition of LPS-induced JNK phosphorylation in mouse RAW264.7 cells at 5 to 50 uM preincubated for 2 hrs followed by LPS-stimulation after 22 hrs by Western blot analysis. It counts as cell-based.
Series [9] deals with RAW264.7. The experiment in a line: Antiinflammatory activity against mouse RAW264.7 cells assessed as effect on LPS-induced TNF-alpha mRNA expression at 5 to 50 uM preincubated for 2 hrs followed by LPS stimulation after 22 hrs by RT-PCR analysis. It counts as functional, cell-based.
Series [10] has as its system RAW264.7. The series is described as follows: Antiinflammatory activity against mouse RAW264.7 cells assessed as reduction in LPS-induced IL-1beta mRNA expression compound preincubated for 2 hrs followed by LPS stimulation after 22 hrs by RT-PCR analysis. It counts as functional, cell-based.
Series [11] relates to Mus musculus. The series is described as follows: Antiarthritic activity in collagen-induced rheumatoid arthritis DBA/1J mouse model assessed as reduction in forelimb swelling at 50 mg/kg, po. It counts as functional, organism-based.
In series [12] the test system is Mus musculus. The series is described as follows: Antiinflammatory activity against carrageenan-induced paw edema in ICR mouse assessed as inhibition of paw edema at 50 mg/kg, po administered 30 mins prior to carrageenan challenge measured at 2 hrs post carrageenan challenge relative to control. The format is functional.
Series [13] relates to Mus musculus. The series is described as follows: Antiinflammatory activity against carrageenan-induced paw oedema in ICR mouse assessed as inhibition of paw edema at 50 mg/kg, po administered 30 mins prior to carrageenan challenge after 5 hrs post carrageenan challenge. The format is functional, organism-based.
For series [14], the system named is Mus musculus. The series is described as follows: Antiinflammatory activity against carrageenan-induced paw oedema in ICR mouse assessed as reduction in NO level in serum at 50 mg/kg, po administered 30 mins prior to carrageenan challenge after 5 hrs post carrageenan. It counts as functional, organism-based.
The subject of series [15] is Mus musculus. The experiment in a line: Antiarthritic activity in collagen-induced rheumatoid arthritis DBA/1J mouse model at 50 mg/kg, po after 22 days. It counts as functional, organism-based.
Series [16] concerns RAW264.7. The series is described as follows: Antiinflammatory activity against mouse RAW264.7 cells assessed as reduction in LPS-induced iNOS protein expression compound preincubated for 2 hrs followed by LPS stimulation after 22 hrs by Western blot analysis. The format is functional, cell-based.
For series [17], the system named is RAW264.7. The experiment in a line: Antiinflammatory activity against mouse RAW264.7 cells assessed as reduction in LPS-induced iNOS mRNA expression compound preincubated for 2 hrs followed by LPS stimulation after 22 hrs by RT-PCR analysis. It counts as functional, cell-based.
Series [18] is described as follows: Toxicity in DBA/1J mouse assessed as effect on body weight at 50 mg/kg, po. It counts as organism-based. The conditions noted are these: in vivo.
The test system of series [19] is RAW264.7. The experiment in a line: Antiinflammatory activity against mouse RAW264.7 cells assessed as reduction in LPS-induced Cox2 mRNA expression compound preincubated for 2 hrs followed by LPS stimulation after 22 hrs by RT-PCR analysis. The format is functional, cell-based.
Series [20] relates to RAW264.7. The experiment in a line: Inhibition of LPS-induced ERK phosphorylation in mouse RAW264.7 cells at 5 to 50 uM preincubated for 2 hrs followed by LPS-stimulation after 22 hrs by Western blot analysis. The format is cell-based.
Series [21] has as its system RAW264.7. The experiment in a line: Antiinflammatory activity against mouse RAW264.7 cells assessed as reduction in LPS-induced Cox2 protein expression compound preincubated for 2 hrs followed by LPS stimulation after 22 hrs by Western blot analysis. It counts as functional, cell-based.
For series [22], the system named is Mus musculus. The experiment in a line: Antiinflammatory activity against carrageenan-induced paw oedema in ICR mouse assessed as inhibition of paw edema at 20 mg/kg, po administered 30 mins prior to carrageenan challenge measured at 2 hrs post carrageenan challenge relative to control. The format is functional.
Series [23] has as its system Mus musculus. The series is described as follows: Antiinflammatory activity against carrageenan-induced paw oedema in ICR mouse assessed as reduction in NO level in serum at 20 mg/kg, po administered 30 mins prior to carrageenan challenge after 5 hrs post carrageenan. It counts as functional, organism-based.
Series [24] relates to Mus musculus. The series is described as follows: Antiinflammatory activity against carrageenan-induced paw oedema in ICR mouse assessed as inhibition of paw edema at 20 mg/kg, po administered 30 mins prior to carrageenan challenge after 5 hrs post carrageenan challenge. It counts as functional, organism-based.

Structures are written as SMILES. Active and inactive are the calls of the source. No cut-off for these calls is given here. Bounds are passed on as bounds.

Chain of Transcription factor p65 (Mus musculus) (Q04207 whole entry): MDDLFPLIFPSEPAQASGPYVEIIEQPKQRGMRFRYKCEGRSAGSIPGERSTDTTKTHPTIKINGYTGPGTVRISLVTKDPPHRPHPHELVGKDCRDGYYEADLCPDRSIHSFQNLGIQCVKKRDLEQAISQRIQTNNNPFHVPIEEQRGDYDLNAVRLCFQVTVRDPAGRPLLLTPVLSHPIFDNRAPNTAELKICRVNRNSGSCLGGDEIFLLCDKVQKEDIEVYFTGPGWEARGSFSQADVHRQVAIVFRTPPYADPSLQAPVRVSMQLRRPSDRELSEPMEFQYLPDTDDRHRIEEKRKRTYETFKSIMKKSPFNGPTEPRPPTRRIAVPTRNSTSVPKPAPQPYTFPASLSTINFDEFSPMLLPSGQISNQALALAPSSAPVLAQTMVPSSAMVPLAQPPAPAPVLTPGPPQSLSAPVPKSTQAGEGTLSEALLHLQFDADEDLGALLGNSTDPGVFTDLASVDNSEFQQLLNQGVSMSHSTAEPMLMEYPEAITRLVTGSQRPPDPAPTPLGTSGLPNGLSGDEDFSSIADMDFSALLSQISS

Consider `C/C=C/c1ccc(O[C@@H]2O[C@H](CO)[C@@H](O)[C@H](O)[C@H]2O)c(O)c1`, for which, in the series on RAW264.7 [1], the 50% inhibitory concentration (IC50) was found to be 29.2 µM. In the series on RAW264.7 [2], the Activity entry was “Non-Toxic”.
For `O=c1cc(-c2ccc(O)c(O)c2)oc2cc(O)cc(O)c12` [LUTEOLIN], in that order: 5.8 µM and “Non-Toxic”.
With `C=CCc1ccc(O[C@@H]2O[C@H](CO)[C@@H](O)[C@H](O)[C@H]2O)cc1`, in the series with RAW264.7 [1], the half-inhibitory concentration (IC50) is above 50 µM. In addition, the Activity entry in the series with RAW264.7 [2] was “Non-Toxic”.
For `C/C=C/c1ccc(O[C@@H]2O[C@H](CO)[C@H]3OC(=O)c4cc(O)c(O)c(O)c4-c4c(cc(O)c(O)c4O)C(=O)O[C@@H]3[C@H]2O)c(O)c1`, in that order: 2.1 µM and “Non-Toxic”.
Taken in the same sequence, the figures for `C=CCc1ccc(O[C@@H]2O[C@H](CO)[C@H]3OC(=O)c4cc(O)c(O)c(O)c4-c4c(cc(O)c(O)c4O)C(=O)O[C@@H]3[C@H]2O)cc1` were 4.3 µM and “Non-Toxic”.
As for `C=CCc1ccc(O[C@@H]2O[C@H](CO[C@@H]3O[C@@H](C)[C@@H]4OC(=O)c5cc(O)c(O)c(O)c5-c5c(cc(O)c(O)c5O)C(=O)O[C@H]4[C@H]3O)[C@H]3OC(=O)c4cc(O)c(O)c(O)c4-c4c(cc(O)c(O)c4O)C(=O)O[C@@H]3[C@H]2O)cc1`, the inhibition result (in series [3]; in the series on RAW264.7 [8]; in the series with RAW264.7 [20]) was “inactive” in each case. Further, in the series on RAW264.7 [1], the IC50 was 1.9 µM. Besides, the inhibition result (in series [4]; in series [5]; in the series with Mus musculus [13]) was “Active” in each case. The Activity result in series [6] was “Non-Toxic”; in the series on RAW264.7 [10], “Dose-dependent effect”; in the series on RAW264.7 [16] it was “Dose-dependent effect”; in the series with RAW264.7 [2], “Non-Toxic”; in the series on RAW264.7 [17], “Dose-dependent effect”; in [18], “Non-Toxic”. For the same compound, the Activity result in the series on RAW264.7 [19] and with RAW264.7 [21] was “Dose-dependent effect” in each case. For the same compound, the outcome in the series with Mus musculus [7], with Mus musculus [11], with Mus musculus [14] and in the series with Mus musculus [15] was Active. Besides, the outcome with RAW264.7 [9] was inactive. Further, the inhibition in vivo at 50 mg/kg with Mus musculus [12] was 26.9%.
`O=C(O)c1cc(O)c(O)c(O)c1` [GALLIC ACID]: the IC50 in the series on RAW264.7 [1] was above 50 µM. The Activity result in the series with RAW264.7 [2] is “Non-Toxic”.
Taken in the same sequence, the figures for `O=c1oc2c(O)c(O)cc3c(=O)oc4c(O)c(O)cc1c4c23` [ELLAGIC ACID] were above 50 µM and “Non-Toxic”.
For `C/C=C/c1ccc(O[C@@H]2O[C@H](CO[C@@H]3O[C@@H](C)[C@@H]4OC(=O)c5cc(O)c(O)c(O)c5-c5c(cc(O)c(O)c5O)C(=O)O[C@H]4[C@H]3O)[C@H]3OC(=O)c4cc(O)c(O)c(O)c4-c4c(cc(O)c(O)c4O)C(=O)O[C@@H]3[C@H]2O)cc1`, in that order: 3.6 µM and “Non-Toxic”.
As to `C=CCc1ccc(O[C@@H]2O[C@H](CO)[C@@H](O)[C@H](O)[C@H]2O)c(O)c1`, the half-inhibitory concentration (IC50) with RAW264.7 [1] was above 50 µM. Besides, the Activity result in the series with RAW264.7 [2] is given as “Non-Toxic”.
With `COc1ccc2c(c1)c(CC(=O)O)c(C)n2C(=O)c1ccc(Cl)cc1` [INDOMETHACIN], the inhibition in vivo at 20 mg/kg in the series on Mus musculus [22] came to 26.5%. The outcome in the series with Mus musculus [23] was Active. The inhibition entry in the series with Mus musculus [24] was “Active”.
Turning to `C=CCc1ccc(O[C@@H]2O[C@H](CO)[C@H]3OC(=O)c4cc(O)c(O)c(O)c4-c4c(cc(O)c(O)c4O)C(=O)O[C@@H]3[C@H]2O)c(O)c1`, the IC50 with RAW264.7 [1] is 4.1 µM. Besides, in the series on RAW264.7 [2], the Activity result is “Non-Toxic”.
Taken in the same sequence, the figures for `C=CCc1ccc(O[C@@H]2O[C@H](COC(=O)c3cc(O)c(O)c(O)c3)[C@H]3OC(=O)c4cc(O)c(O)c(O)c4-c4c(cc(O)c(O)c4O)C(=O)O[C@@H]3[C@H]2O)c(O)c1` were 3.9 µM and “Non-Toxic”.
Regarding `C/C=C/c1ccc(O[C@@H]2O[C@H](CO)[C@H]3OC(=O)c4cc(O)c(O)c(O)c4-c4c(cc(O)c(O)c4O)C(=O)O[C@@H]3[C@H]2O)cc1`, the concentration for half-maximal inhibition (IC50) in the series with RAW264.7 [1] came out at 8.2 µM. For the same compound, the Activity entry in the series on RAW264.7 [2] is on record as “Non-Toxic”.
Taken in the same sequence, the figures for `C/C=C/c1ccc(O[C@@H]2O[C@H](CO)[C@@H](O)[C@H](O)[C@H]2O)cc1` were above 50 µM and “Non-Toxic”.
